# Test results taken from patent US10077290B2, “Stabilized antiviral fusion helices” (priority 2011, dated 2018).
# Entries after “also recorded” stand apart in the source; their conditions may differ. Read-outs that look alike come from different tables or passages of the source. Bridges are numbered along the chain shown (N, C = ends). Where no end group is shown, it is not given here. [ ]: non-standard residue; d: D form. R8 = C=CCCCCCC[C@@](C)(N)C(=O)O; S5 = C=CCCC[C@](C)(N)C(=O)O
# Key:
# [1] = test system: RSV 5-helix bundle; assay: Competition fluorescence polarization assay (FPA) against FITC-RSV HR2 (488-522); assay type: binding, Respiratory Syncytial Virus (RSV)
# Protocol: To assess binding activity toward the RSV fusogenic bundle, competition FPA was performed using recombinant five-helix bundle protein, fluorescent HR2 peptide (488-522), and serial dilutions of SAHF peptides shown in Table 2. More specifically, a 5-helix bundle protein was designed containing five of the six helices that comprise the core of the RSV-F trimer of hairpins, connected by short peptide linkers in accordance with the design of the gp41 5-helix bundle (Root et al., Science, 291:884-888, 2001). Because the 5-helix bundle lacks the third HR2 helix but is otherwise soluble, stable, and helical, incorporation of the sixth HR2 peptide in the form of FITC-RSV (488-522) yielded a stable complex, which can be competed with acetylated SAH-RSV peptides to gauge relative binding affinity.
# FPA assays were used to measure and compare the relative binding activities of distinct SAHF constructs for the RSV fusion bundle. First, FITC-RSV HR2 peptide (488-522) is mixed with a serial dilution of recombinant 5-helix bundle protein to generate a binding isotherm. A fixed concentration of FITC-peptide and protein at ˜EC75 was then incubated with a serial dilution of acetylated SAHF peptide to generate competition curves for comparative analysis. Fluorescence polarization (mP units) was measured on a SpectraMax fluorimeter and IC50 values calculated by nonlinear regression analysis of competition curves using Prism software (Graphpad).
# [2] = test system: rgRSV; assay: rgRSV in vitro infectivity assay in Vero cells; assay type: cell-based, Respiratory Syncytial Virus (RSV); conditions: for inhibition of RSV infection (anti-RSV activity): rgRSV 0.1 MOI, 24 hour post-infection; for RSV infection, peptide administered before viral exposure (prophylactically): SAHF for 1 hour followed by rgRSV 0.1 MOI; for RSV infection, peptide administered after viral exposure: rgRSV 0.1 MOI for 1 hour followed by SAHF
# Protocol: To test the capacity of SAHF peptides to block RSV infection of culture cells, an in vitro infectivity assay was performed in the presence and absence of SAHF peptides. Briefly, Vero cells plated in 48-well format (60,000 cells/well) were exposed to rgRSV only (0.1 MOI) and SAHF peptides, followed by imaging 24 hour post-infection to quantitate infectivity by confocal microscopy and FACS analysis Annexin V staining was also performed on harvested Vero cells to distinguish live from dead cells when calculating percent GFP positive cells.
# (§1) Vero cells plated in 48-well format (60,000 cells/well) were exposed to (a) rgRSV only (0.1 MOI); (b) rgRSV for 1 hour followed by treatment with SAHF; and (c) SAHF for 1 hour followed by rgRSV infection, and then imaged 24 hour post-infection to quantitate infectivity by confocal microscopy and FACS analysis.
# [3] = test system: RgRSV; assay: Intranasal RgRSV infection of BALB/c mice after intranasal peptide; assay type: in vivo; conditions: RgRSV-infected, 125 μM intranasally
# Protocol: One hour post treatment, three groups of mice were inoculated with a single dose of RgRSV at 1×10^6 pfu/mouse, with the fourth group receiving a mock inoculation. Mice were sacrificed at 24 hours post infection and the noses harvested, sectioned, stained with DAPI and imaged with an Olympus fluorescent microscope (FIG. 16A; original magnification 20×). Image J analysis was performed on the acquired images (FIG. 16B) and average GFP positive (green) and DAPI positive (blue) cells were calculated from eight images (4 sections) per mouse (bars represent percent GFP positive of total DAPI-positive cells present in the images and error bars represent mean+/−SEM. *, p<0.001). FIG. 16C depicts the results of hematoxylin and eosin staining of the nose sections (original magnification 20×, insets 100×) In FIG. 16C black arrows highlight thickened mucosa.
# [4] = test system: RSV-A2; assay: RSV-A2 lung infection of BALB/c mice after prophylactic intranasal peptide; assay type: in vivo; conditions: 125 μM intranasally, dosing and inoculation repeated at 16 hours, 4 days after second infection
# Protocol: One hour post treatment, three groups of mice were inoculated with a single dose of RSV-A2 at 1×10^6 pfu/mouse. Peptide dosing and viral inoculation was repeated 16 hours post-infection. The fourth group was treated with volume-equivalent vehicle and mock-infected. Two mice from each group were sacrificed 4 days after the second infection and left lung lobes harvested after 1% paraformaldehyde perfusion, followed by cryopreservation in OCT. Sections (5 μm) were treated with 1:1000 dilution of rabbit anti-RSV polyclonal antibody (Millipore) overnight followed by anti-rabbit antibody conjugated to Alexa Fluor 555 (1:400) (red) (Molecular Probes) for 1 h. Sections were washed and mounted with medium containing DAPI (blue) and viewed with an Olympus fluorescent microscope (FIG. 17A; original magnification 20×). Image J analysis was performed on the acquired images and the percentage RSV-positive cells (red) of total DAPI-positive cells (blue) determined from 8 images (4 sections) per mice (FIG. 17B; .error bars represent mean+/−SEM; *, p<0.0001). Four days after the second infection, bronchoalveolar lavage (BAL) was performed on one mouse from each group and BAL supernatant used to determine the viral titers by plaque assay on Hep-2 cells (FIG. 17C; error bars represent mean+/−SEM of plaques counted per in vivo specimen; *, p<0.05). Also at four days after the second infection, cranial and caudal lobes of the right lung from two mice per group were snap frozen on dry ice. A lung homogenate was generated from the cranial lobe and supernatant subjected to viral titer determination (log 10 pfu/ml) (FIG. 17D; error bars represent mean+/−SEM; *, p<0.05). Total RNA was isolated from the caudal lobe of the right lung and quatitative RT-PCR was performed for the RSV-N gene. The results of this analysis are presented in FIG. 17E in which the bar graphs represent the RSV-N gene expression normalized to the mock-infected tissue.
# [5] = test system: rgRSV; assay: Virus-induced syncytia formation in Vero cells; assay type: cell-based, Respiratory Syncytial Virus (RSV); conditions: administered before or after viral exposure
# Protocol: as §1
# [6] = test system: RSV-A2; assay: RSV-A2 infection of A549 cells at 1 MOI, Hep-2 plaque assay titers; assay type: cell-based, Respiratory Syncytial Virus (RSV); conditions: 5 μM peptide
# Protocol: In this study A549 cells were plated in a 24 well plate at 30,000 cells/well. The following day, the cells were treated with 5 μM of the indicated stapled SAHF peptide or volume-equivalent DMSO vehicle, followed by RSV-A2 infection at 1 MOI. The cells were infected for 2 h, and the infection medium replaced with 400 μl of DMEM containing 5% FBS and 5 μM of the indicated stapled SAHF peptide. Cells were harvested along with the supernantant 24 h post infection, vortexed for 10 sec, and the supernatant collected, leaving the cell pellet behind. Hep-2 cells were plated on a 24 well plate at 60,000 cells/well the day before use. Plaque assay was performed on Hep-2 cells using the collected supernatant and titers determined at 5 days post infection of Hep-2 cells. The results of this analysis are shown in FIG. 14 in which titers are shown as log 10 pfu/ml and the values represent the mean+/−SEM for two independent experiments (***p<0.001; ****p<0.0001).
# [7] = test system: rgRSV; assay: Intranasal peptide followed by transnasal rgRSV infection in mice; assay type: in vivo; conditions: 250 μM, 25 μL intranasally four hours before rgRSV, 20 hours post-infection
# Protocol: To examine the capacity of SAH-RSV peptides to inhibit RSV infection in vivo, vehicle or SAH-RSV peptide (250 μM, 25 μL) was administered to anesthetized mice intranasally followed by transnasal infection with rgRSV (5×10^5 PFU, 36 μL) four hours later. Mice were sacrificed 20 hours post-infection, and the nasal epithelium cryosectioned, stained with DAPI, and imaged using a fluorescent microscope.
Substance,5-helix bundle binding activity [1],inhibition of RSV infection (anti-RSV activity) [2],other results
F8ASISQVXEKINQSLAFIRKSDELLHNVNAGKST (Ac-F[R8]ASISQV[S5]EKINQSLAFIRKSDELLHNVNAGKST; staple 2-9) [SAHF-G],superior 5-helix bundle binding,superior,
"FD8SISQVNXKINQSLAFIRK8DELLHNXNAGKST (FDXSISQVNXKINQSLAFIRKXDELLHNXNAGKST; two hydrocarbon staples; MOD_RES (3)..(3) Any amino acid; (3)..(10) Crosslink between residues; MOD_RES (10)..(10) Any amino acid; MOD_RES (22)..(22) Any amino acid; (22)..(29) Crosslink between residues; MOD_RES (29)..(29) Any amino acid) [SAHF-H, L, control]",,,"inflammation in nose sections (hematoxylin and eosin staining) [3]: Inflammation is noted; RSV-A2 lung infection, by each measure (RSV-positive cells, BAL and lung homogenate titers, RSV-N gene) [4]: no effect"
FD8SISQVNXKINQSLAFIRKSDELLHNVNAGKST (FDXSISQVNXKINQSLAFIRKSDELLHNVNAGKST; hydrocarbon staple; MOD_RES (3)..(3) Any amino acid; (3)..(10) Crosslink between residues; MOD_RES (10)..(10) Any amino acid) [SAHF-H],superior 5-helix bundle binding,superior,"RSV infection, peptide administered before viral exposure (prophylactically) [2]: inhibited RSV infection; also recorded: blocks RSV infection of Vero cells; RSV infection, peptide administered after viral exposure [2]: inhibited RSV infection; also recorded: blocks RSV infection of Vero cells; virus-induced syncytia formation [5]: blocked syncytial formation; also recorded: inhibits virus-induced syncytia formation"
"FDA8ISQVNEXINQSLAFI8KSDELLXNVNAGKST (Ac-FDA[R8]ISQVNE[S5]INQSLAFI[R8]KSDELL[S5]NVNAGKST; staple 4-11, 20-27) [SAHF-I, J]",,,RSV-A2 infection (viral titers) [6]: inhibit RSV-A2 infection of A549 cells
FDA8SQVVNEXINQSLAFIRKSDELLHNVNAGKST [SAHF-I],superior 5-helix bundle binding,superior,
FDASISQVNEKINQSLAFI8KSDELLXNVNAGKST (Ac-FDASISQVNEKINQSLAFI[R8]KSDELL[S5]NVNAGKST; staple 20-27) [SAHF-J],superior 5-helix bundle binding,superior,
FDASISQVNEKINQSLAFIR8SDELLHXVNAGKST (Ac-FDASISQVNEKINQSLAFIR[R8]SDELLH[S5]VNAGKST; staple 21-28) [SAHF-K],superior 5-helix bundle binding,superior,
"FDASISQVNEKINQSLAFIRK8DELLHNXNAGKST [SAHF-L, negative control]",no binding activity; also recorded: did not bind,nor suppressed RSV infection in vitro,"5-helix bundle binding activity ([1]; listed as SAH-RSV(L)): poor binding activity; also recorded: incapable of binding the 5-helix bundle; RSV infection, peptide administered before viral exposure (prophylactically) [2]: little to no effect; RSV infection, peptide administered after viral exposure [2]: little to no effect; inhibition of RSV infection (anti-RSV activity) ([2]; listed as SAH-RSV(L)): no activity; RSV infection of nasal mucosa (GFP-positive cells) [7]: no in vivo activity; virus-induced syncytia formation [5]: little to no effect"
FDAXISQXNEKINQSLAFIRKSDELLHNVNAGKST (Ac-FDA[S5]ISQ[S5]NEKINQSLAFIRKSDELLHNVNAGKST; staple 4-8) [SAHF-C],bound the 5-helix bundle,suppressed RSV infection in vitro,RSV infection of nasal mucosa (GFP-positive cells) [7]: markedly suppressed RSV infection; also recorded: blocks trans-nasal RSV infection in mice
